Measured values published in patent US9624200B2, “Therapeutic piperazines” (DART NEUROSCIENCE (CAYMAN) LTD., priority 2006, dated 2017).
pIC50: −log10 of the molar value.

These molecules were tested on PDE4 from human U-937 cells (assay: PDE4 Inhibition Assay). Conditions: 1 μM cAMP, [3H]-cAMP, read-out: Potency Class (Inhibitory Concentration) in the PDE4 assay.
Assay type: biochemical
Method: PDE4 from human U-937 cells was used (see T. J. Torphy, et al., J. Pharmacol. Exp. Ther., 1992, 263, 1195-1205). Test compound at various concentration and/or vehicle was preincubated with 2 μg/ml enzyme in Tris-HCl buffer pH 7.5 for 15 minutes at 25° C. The reaction was initiated by addition of 1 1 μM cAMP and 0.01 1 μM [^3H]-cAMP for another 20 minute incubation period and terminated at 100° C. The resulting [^3H]-AMP was converted to [^3H]-adenosine by addition of snake venom nucleotidase and separated by AG1-X2 resin. An aliquot was removed and counted to determine the amount of [^3H]-adenosine formed. Results were converted to percent inhibition and IC so determined using XLfit from IDBS (ID Business Solutions Ltd., 2 Occam Court, Surrey Research Park, Guildford, Surrey, GU2 7QB UK).
Representative compounds of the present invention were tested and found to have significant PDE4 inhibition in this assay.

Row | Compound | pIC50
1 | COc1ccc(N2CCN(C(=O)C3CCC(=O)N3)[C@@H](Cc3ccccc3)C2)cc1OC1CCCC1 (mixture of isomers) [Compound 285, (S)-5-(2-benzyl-4-(3-(cyclopentyloxy)-4-methoxyphenyl)piperazine-1-carbonyl)pyrrolidin-2-one] | 6.00 to 6.70
2 | COc1ccc(N2CCN(C(=O)CCc3cnc[nH]3)[C@@H](Cc3ccccc3)C2)cc1OC1CCCC1 [Compound 239, (S)-1-(2-benzyl-4-(3-(cyclopentyloxy)-4-methoxyphenyl)piperazin-1-yl)-3-(1H-imidazol-5-yl)propan-1-one] | < 6.00
3 | COc1ccc(N2CCN(C(=O)Cc3cnc[nH]3)[C@@H](Cc3ccccc3)C2)cc1OC1CCCC1 [Compound 240, (S)-1-(2-benzyl-4-(3-(cyclopentyloxy)-4-methoxyphenyl)piperazin-1-yl)-2-(1H-imidazol-5-yl)ethanone] | > 6.70
4 | COc1ccc(N2CCN(C(=O)c3c[nH]cn3)[C@@H](Cc3ccccc3)C2)cc1OC1CCCC1 [Compound 241, (S)-(2-benzyl-4-(3-(cyclopentyloxy)-4-methoxyphenyl)piperazin-1-yl)(1H-imidazol-4-yl)methanone] | 6.00 to 6.70
5 | COc1ccc(N2CCN(CCc3cnc[nH]3)[C@@H](Cc3ccccc3)C2)cc1OC1CCCC1 [Compound 242, (S)-1-(2-(1H-imidazol-5-yl)ethyl)-2-benzyl-4-(3-(cyclopentyloxy)-4-methoxyphenyl)piperazine] | < 6.00
6 | COc1ccc(N2CCN(C(=O)C(C)C)[C@@H](Cc3ccccc3)C2)cc1OC1CCCC1 [Compound 243, (S)-1-(2-benzyl-4-(3-(cyclopentyloxy)-4-methoxyphenyl)piperazin-1-yl)-2-methylpropan-1-one] | < 6.00
7 | CCC(=O)N1CCN(c2ccc(OC)c(OC3CCCC3)c2)C[C@@H]1Cc1ccccc1 [Compound 244, (S)-1-(2-benzyl-4-(3-(cyclopentyloxy)-4-methoxyphenyl)piperazin-1-yl)propan-1-one] | 6.00 to 6.70
8 | COCC(=O)N1CCN(c2ccc(OC)c(OC3CCCC3)c2)C[C@@H]1Cc1ccccc1 [Compound 245, (S)-1-(2-benzyl-4-(3-(cyclopentyloxy)-4-methoxyphenyl)piperazin-1-yl)-2-methoxyethanone] | 6.00 to 6.70
9 | COc1ccc(N2CCN(C(C)=O)[C@@H](Cc3cccc(C)c3)C2)cc1OC1CCCC1 [Compound 248, (S)-1-(4-(3-(cyclopentyloxy)-4-methoxyphenyl)-2-(3-methylbenzyl)piperazin-1-yl)ethanone] | > 6.70
10 | COc1ccc(N2CCN(C(C)=O)[C@@H](CN3CCCC3)C2)cc1OC1CCCC1 [Compound 249, (S)-1-(4-(3-(cyclopentyloxy)-4-methoxyphenyl)-2-(pyrrolidin-1-ylmethyl)piperazin-1-yl)ethanone] | < 6.00
11 | COc1ccc(N2CCN(C(C)=O)[C@@H](CN3CCOCC3)C2)cc1OC1CCCC1 [Compound 250, (S)-1-(4-(3-(cyclopentyloxy)-4-methoxyphenyl)-2-(morpholinomethyl)piperazin-1-yl)ethanone] | < 6.00
12 | COc1ccc(N2CCN(C(C)=O)[C@@H](CN3Cc4ccccc4C3)C2)cc1OC1CCCC1 [Compound 252, (S)-1-(4-(3-(cyclopentyloxy)-4-methoxyphenyl)-2-(isoindolin-2-ylmethyl)piperazin-1-yl)ethanone] | 6.00 to 6.70
13 | COc1ccc(N2CCN(C(C)=O)[C@@H](CN3CCc4ccccc4C3)C2)cc1OC1CCCC1 [Compound 253, (S)-1-(4-(3-(cyclopentyloxy)-4-methoxyphenyl)-2-((3,4-dihydroisoquinolin-2(1H)-yl)methyl)piperazin-1-yl)ethanone] | > 6.70
14 | CCOc1ccc(N2CCN(C(C)=O)[C@@H](Cn3cccn3)C2)cc1OC1CCCC1 [Compound 254] | < 6.00
15 | COc1ccc(N2CCN(C(=O)Cc3n[nH]c(C)n3)[C@@H](CN3CCCC3)C2)cc1OC1CCCC1 [Compound 255, (S)-1-(4-(3-(cyclopentyloxy)-4-methoxyphenyl)-2-(pyrrolidin-1-ylmethyl)piperazin-1-yl)-2-(5-methyl-1H-1,2,4-triazol-3-yl)ethanone] | < 6.00
16 | COc1ccc(N2CCN(C(=O)Cc3n[nH]c(C)n3)[C@@H](CN3CCOCC3)C2)cc1OC1CCCC1 [Compound 256, (S)-1-(4-(3-(cyclopentyloxy)-4-methoxyphenyl)-2-(morpholinomethyl)piperazin-1-yl)-2-(5-methyl-1H-1,2,4-triazol-3-yl)ethanone] | > 6.70
17 | CCOc1ccc(N2CCN(C(=O)Cc3n[nH]c(C)n3)[C@@H](Cn3cccn3)C2)cc1OC1CCCC1 [Compound 257] | > 6.70
18 | COc1ccc(N2CCN(C(=O)CC(=O)O)[C@@H](Cc3ccccc3)C2)cc1OC1CCC1 [Compound 258, (S)-3-(2-benzyl-4-(3-cyclobutoxy-4-methoxyphenyl)piperazin-1-yl)-3-oxopropanoic acid] | > 6.70

Row | Compound | pIC50
19 | COc1ccc(N2CCN(C(=O)CC(N)=O)[C@@H](Cc3ccccc3)C2)cc1OC1CCC1 [Compound 261, (S)-3-(2-benzyl-4-(3-cyclobutoxy-4-methoxyphenyl)piperazin-1-yl)-3-oxopropanamide] | > 6.70
20 | NC(=O)CC(=O)N1CCN(c2ccc(OC(F)F)c(OC3CCC3)c2)C[C@@H]1Cc1ccccc1 [Compound 263, (S)-3-(2-benzyl-4-(3-cyclobutoxy-4-(difluoromethoxy)phenyl)piperazin-1-yl)-3-oxopropanamide] | > 6.70
21 | CCc1nn(C2CCC2)c2cc(N3CCN(C(=O)CC(N)=O)[C@@H](Cc4ccccc4)C3)ccc12 [Compound 264, (S)-3-(2-benzyl-4-(1-cyclobutyl-3-ethyl-1H-indazol-6-yl)piperazin-1-yl)-3-oxopropanamide] | > 6.70
22 | COc1ccc(N2CCN(CC(=O)O)[C@@H](Cc3ccccc3)C2)cc1OC(C)C [Compound 266] | 6.00 to 6.70
23 | COc1ccc(N2CCN(CC(N)=O)[C@@H](Cc3ccccc3)C2)cc1OC1CCC1 [Compound 268, (S)-2-(2-benzyl-4-(3-cyclobutoxy-4-methoxyphenyl)piperazin-1-yl)acetamide] | > 6.70
24 | COc1ccc(N2CCN(CCC(N)=O)[C@@H](Cc3ccccc3)C2)cc1OC1CCCC1 [Compound 269, (S)-3-(2-benzyl-4-(3-(cyclopentyloxy)-4-methoxyphenyl)piperazin-1-yl)propanamide] | > 6.70
25 | COc1ccc(N2CCN(CC(N)=O)[C@@H](Cc3ccccc3)C2)cc1OC(F)F [Compound 271, (S)-2-(2-benzyl-4-(3-(difluoromethoxy)-4-methoxyphenyl)piperazin-1-yl)acetamide] | 6.00 to 6.70
26 | COc1ccc(N2CCN(CCC(N)=O)[C@@H](Cc3ccccc3)C2)cc1OC(C)C [Compound 272, (S)-3-(2-benzyl-4-(3-isopropoxy-4-methoxyphenyl)piperazin-1-yl)propanamide] | 6.00 to 6.70
27 | NC(=O)CN1CCN(c2ccc(OC(F)F)c(OC3CCC3)c2)C[C@@H]1Cc1ccccc1 [Compound 273, (S)-2-(2-benzyl-4-(3-cyclobutoxy-4-(difluoromethoxy)phenyl)piperazin-1-yl)acetamide] | > 6.70
28 | COc1ccc(N2CCN(C(=O)CCN)[C@@H](Cc3ccccc3)C2)cc1OC1CCC1 [Compound 274, (S)-3-amino-1-(2-benzyl-4-(3-cyclobutoxy-4-methoxyphenyl)piperazin-1-yl)propan-1-one] | < 6.00
29 | CCc1nn(C2CCC2)c2cc(N3CCN(CC(N)=O)[C@@H](Cc4ccccc4)C3)ccc12 [Compound 275, (S)-2-(2-benzyl-4-(1-cyclobutyl-3-ethyl-1H-indazol-6-yl)piperazin-1-yl)acetamide] | < 6.00
30 | CCc1nn(C2CCC2)c2cc(N3CCN(CCC(N)=O)[C@@H](Cc4ccccc4)C3)ccc12 [Compound 276, (S)-3-(2-benzyl-4-(1-cyclobutyl-3-ethyl-1H-indazol-6-yl)piperazin-1-yl)propanamide] | < 6.00
31 | COc1ccc(N2CCN(C(=O)[C@H]3C[C@H](O)CN3)[C@@H](Cc3ccccc3)C2)cc1OC1CCCC1 [Compound 278, ((S)-2-benzyl-4-(3-(cyclopentyloxy)-4-methoxyphenyl)piperazin-1-yl)((2R,4S)-4-hydroxypyrrolidin-2-yl)methanone] | < 6.00
32 | COc1ccc(N2CCN(C(=O)[C@H]3C[C@@H](O)CN3)[C@@H](Cc3ccccc3)C2)cc1OC1CCCC1 [Compound 279, ((S)-2-benzyl-4-(3-(cyclopentyloxy)-4-methoxyphenyl)piperazin-1-yl)((2R,4R)-4-hydroxypyrrolidin-2-yl)methanone] | < 6.00
33 | COc1ccc(N2CCN(C(=O)C3CNC(=O)N3)[C@@H](Cc3ccccc3)C2)cc1OC1CCCC1 (stereo partly drawn) [Compound 281, 4-((S)-2-benzyl-4-(3-(cyclopentyloxy)-4-methoxyphenyl)piperazine-1-carbonyl)imidazolidin-2-one] | > 6.70
34 | COc1ccc(N2CCN(C(=O)C(C)(C)O)[C@@H](Cc3ccccc3)C2)cc1OC1CCCC1 [Compound 282, (S)-1-(2-benzyl-4-(3-(cyclopentyloxy)-4-methoxyphenyl)piperazin-1-yl)-2-hydroxy-2-methylpropan-1-one] | 6.00 to 6.70
35 | COc1ccc(N2CCN(C(=O)C3(O)CC3)[C@@H](Cc3ccccc3)C2)cc1OC1CCCC1 [Compound 283, (S)-(2-benzyl-4-(3-(cyclopentyloxy)-4-methoxyphenyl)piperazin-1-yl)(1-hydroxycyclopropyl)methanone] | 6.00 to 6.70
36 | COc1ccc(N2CCN(C(=O)COC(C)=O)[C@@H](Cc3ccccc3)C2)cc1OC1CCCC1 [Compound 284, (S)-2-(2-benzyl-4-(3-(cyclopentyloxy)-4-methoxyphenyl)piperazin-1-yl)-2-oxoethyl acetate] | < 6.00
